# Assay results from US9102648B1, “Bioavailable diacylhydrazine ligands for modulating the expression of exogenous genes via an ecdysone receptor complex” (Intrexon Corporation, priority 2003, dated 2015).
# Read-outs that look alike come from different tables or passages of the source.
# Legend:
# [1] = molecular target: T1, Bombyx mori EcR (VP16 fusion, CVBE switch construct) (Bombyx mori, UniProt P49881); assay: Z3 Assay (HEK-293 cells with CVBE and 6XEcRE LacZ, β-galactosidase reporter); conditions: for fold induction at 3.3 µM: HEK293, read-out: Fold Induction, Z3 Assay, 3.3 uM; for fold induction at 33 µM: HEK293, read-out: Fold Induction, Z3 Assay, 33 uM; for Z3 assay Rel Max FI: maximum fold induction at any concentration relative to that of GS-E ligand; for Fold Induction, Z3 Assay, 3.3 uM: 3.3 uM ligand; for Fold Induction, Z3 Assay, 3.3 uM / Fold Induction, Z3 Assay, 33 uM: ligand treated / DMSO treated cells; for Fold Induction, Z3 Assay, 33 uM: 33 uM ligand
# T1 sequence (P49881 86-606): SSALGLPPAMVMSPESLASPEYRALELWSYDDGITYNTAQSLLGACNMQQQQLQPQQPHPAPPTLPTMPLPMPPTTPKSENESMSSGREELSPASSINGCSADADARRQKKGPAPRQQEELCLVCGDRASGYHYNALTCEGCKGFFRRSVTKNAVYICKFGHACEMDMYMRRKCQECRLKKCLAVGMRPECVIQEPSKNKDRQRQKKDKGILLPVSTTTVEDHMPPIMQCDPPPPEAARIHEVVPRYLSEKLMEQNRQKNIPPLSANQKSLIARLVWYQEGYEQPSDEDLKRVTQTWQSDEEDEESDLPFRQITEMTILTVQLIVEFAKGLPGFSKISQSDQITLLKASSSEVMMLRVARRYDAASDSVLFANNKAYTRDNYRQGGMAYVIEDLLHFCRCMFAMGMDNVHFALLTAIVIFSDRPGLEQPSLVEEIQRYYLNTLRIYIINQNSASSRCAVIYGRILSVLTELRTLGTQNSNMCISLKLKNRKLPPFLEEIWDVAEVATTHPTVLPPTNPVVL
# T1 sequence (P19793 1-462 partner): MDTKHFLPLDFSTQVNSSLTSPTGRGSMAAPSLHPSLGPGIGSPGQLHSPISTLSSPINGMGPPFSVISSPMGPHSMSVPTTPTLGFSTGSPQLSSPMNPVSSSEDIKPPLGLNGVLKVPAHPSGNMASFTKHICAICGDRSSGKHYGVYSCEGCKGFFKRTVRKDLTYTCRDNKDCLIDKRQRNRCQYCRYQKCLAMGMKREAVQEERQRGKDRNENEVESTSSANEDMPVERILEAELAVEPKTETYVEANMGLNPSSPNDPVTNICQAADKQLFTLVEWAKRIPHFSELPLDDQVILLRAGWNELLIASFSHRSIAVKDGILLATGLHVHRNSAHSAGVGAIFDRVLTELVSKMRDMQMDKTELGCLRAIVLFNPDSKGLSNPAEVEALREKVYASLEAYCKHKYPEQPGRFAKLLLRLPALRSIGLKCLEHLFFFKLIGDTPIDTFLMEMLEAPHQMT
# [2] = molecular target: GAL4 DBD-CfEcR(DEF)/VP16AD-MmRXRE (Choristoneura fumiferana, UniProt O77240); assay: 13B3 Assay (CHO stable cell line, luciferase reporter); conditions: for 13B3 assay Rel Max FI: maximum fold induction at any concentration relative to that of GS-E ligand, CHO 13B3 cells; for fold induction at 3.3 µM: read-out: Fold Induction, 13B3 Assay, 3.3 uM; for fold induction at 33 µM: read-out: Fold Induction, 13B3 Assay, 33 uM; for Fold Induction, 13B3 Assay, 3.3 uM: 3.3 uM ligand; for Fold Induction, 13B3 Assay, 3.3 uM / Fold Induction, 13B3 Assay, 33 uM: RLU ligand treated / RLU DMSO treated cells; for Fold Induction, 13B3 Assay, 33 uM: 33 uM ligand
# Summary of the method: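 CHO 13B3 clone stably expressing GAL4 DBD–CfEcR(DEF) and VP16AD–MmRXR(DE) with GAL4 RE–luciferase reporter; cells plated 24 h at 37 °C, then treated with ligands (DMSO stocks diluted 300-fold), 8 concentrations 33–0.01 μM.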
# [3] = read-out: Z3 assay EC50, HEK-293 Z3 cells, β-galactosidase reporter, average of two wells
# [4] = read-out: 13B3 EC50, CHO 13B3 stable cell line, luciferase reporter, 48 h, average of two wells
SMILES,EC50 [1] [nM],fold induction at 3.3 µM [1],fold induction at 33 µM [1],Z3 assay Rel Max FI ([1]; HEK-293 Z3 cells),EC50 [2] [nM],13B3 assay Rel Max FI [2],fold induction at 3.3 µM [2],fold induction at 33 µM [2],"Fold Induction, Z3 Assay, 3.3 uM ([1]; average of two wells)","Fold Induction, Z3 Assay, 33 uM ([1]; average of two wells)","EC50 [1, 3] [nM]","Fold Induction, 13B3 Assay, 3.3 uM ([2]; average of two wells)","Fold Induction, 13B3 Assay, 33 uM ([2]; average of two wells)","EC50 [2, 4] [nM]"
"COc1cccc(C(=O)NN(C(=O)c2cc(Cl)c(F)c(Cl)c2)C(C)(C)C)c1C [RG-101382, N-(3-methoxy-2-methylbenzoyl)-N′-(3,5-dichloro-4-fluorobenzoyl)-N′-tert-butylhydrazine]",66,725,426,0.951,588,0.915,13100,1010,–,–,–,–,–,–
COc1cnccc1C(=O)N(NC(=O)c1cccc(O)c1C)C(C)(C)C [RG-115595],–,–,–,0.686,–,–,–,–,44,1067,5620,6,1381,–
CCc1c(OC)cccc1C(=O)NN(C(=O)c1cc(Cl)ccc1[N+](=O)[O-])C(C)(C)C [RG-115257],–,–,–,0.885,–,0.742,–,–,297,691,204,820,354,886
CCc1c(C(=O)NN(C(=O)c2ccccc2OC)C(C)(C)C)ccc2c1OCCO2 [RG-115244],–,–,–,0.959,–,0.663,–,–,283,816,85,2404,573,369
CCCC(N(NC(=O)c1cccc(OC)c1CC)C(=O)c1cc(C)cc(C)c1)C(C)(C)C (centres unmarked) [RG-115830],–,–,–,1.020,–,–,–,–,1604,983,45,–,–,–
Cc1ccc([N+](=O)[O-])c(C(=O)N(NC(=O)c2ccc3c(c2C)OCCO3)C(C)(C)C)c1 [RG-115384],–,–,–,0.904,–,0.426,–,–,337,–,166,2753,2277,320
COc1cccc(C(=O)NN(C(=O)c2cc(C)cc(C)c2)C(C)(C)C)c1C [RG-102398],95,535,1970,1.027,627,0.838,8120,795,–,–,–,–,–,–
COc1cc(C(=O)N(NC(=O)c2ccc3c(c2C)CCCO3)C(C)(C)C)cc(OC)c1C [RG-115055],–,–,–,0.936,–,0.894,–,–,573,617,43,1356,1350,303
CCc1c(OC)cccc1C(=O)NN(C(=O)c1cc(C)cc(C)c1)C(CC)C(C)(C)C (centres unmarked) [RG-115832],–,–,–,1.002,–,–,–,–,1564,621,37,–,–,–
CCc1c(OC)cccc1C(=O)NN(C(=O)c1cc(OC)c(C)c(OC)c1)C(CC)C(C)(C)C (centres unmarked) [RG-115831],–,–,–,0.937,–,–,–,–,1481,544,102,–,–,–
"CCC(N(NC(=O)c1cccc(OC)c1C)C(=O)c1cc(OC)c(C)c(OC)c1)C(C)(C)C (centres unmarked) [RG-115820, 3,5-dimethoxy-4-methyl-benzoic acid N-(1-ethyl-2,2-dimethyl-propyl)-N′-(3-methoxy-2-methyl-benzoyl)-hydrazide]",203,1410,701,0.887,–,–,–,–,–,–,–,–,–,–
"CCc1c(OC)cccc1C(=O)NN(C(=O)c1cc(C)cc(C)c1)C(C)(C)C=NNC(N)=O [RG-115653, semicarbazide of 2-ethyl-3-methoxy-benzoic acid N′-(3,5-dimethyl-benzoyl)-N′-(1,1-dimethyl-2-oxo-ethyl)-hydrazide]",–,–,–,–,–,–,–,–,–,666,–,6,–,–
CCc1c(OC)cccc1C(=O)NN(C(=O)c1cc(Cl)ccc1OC)C(C)(C)C [RG-115253],–,–,–,–,–,–,–,–,–,832,269,–,471,–
COc1ccc(OC)c(C(=O)N(NC(=O)c2cccc(C)c2C)C(C)(C)C)c1 [RG-100763],–,–,–,–,–,–,–,–,–,151,2140,–,2442,–
CCc1c(OC)cccc1C(=O)NN(C(=O)c1c(F)cccc1F)C(C)(C)C [RG-115033],–,–,–,0.575,–,0.643,–,–,24,388,16200,386,12,1000
CCc1c(C(=O)NN(C(=O)c2ccccc2OC)C(C)(C)C)ccc2c1OCOC2 [RG-115065],–,–,–,–,–,–,–,–,–,878,1480,–,880,–
"CCOC(=O)C(C)(C)N(NC(=O)c1cccc(OC)c1CC)C(=O)c1cc(C)cc(C)c1 [RG-115025, 2-[N-(3,5-dimethyl-benzoyl)-N′-(2-ethyl-3-methoxy-benzoyl)-hydrazino]-2-methyl-propionic acid ethyl ester]",347,269,489,0.385,39300,0.186,8,1700,–,–,–,–,–,–
"COc1ccc(C(=O)N(NC(=O)c2ccc3c(c2C)OCCO3)C(C)(C)C)c(OC)n1 [RG-115517, 2,6-dimethoxy-nicotinic acid N-tert-butyl-N′-(5-methyl-2,3-dihydro-benzo[1,4]dioxine-6-carbonyl)-hydrazide]",89,408,–,0.923,355,0.675,8400,12000,–,–,–,–,–,–
COc1cccc(C(=O)NN(C(=O)c2cccc(C)c2)C(C)(C)C)c1C [RG-100694],–,–,–,1.157,–,0.632,–,–,1294,1288,389,3385,2078,405
CCCC(N(NC(=O)c1cccc(OC)c1C)C(=O)c1cc(OC)c(C)c(OC)c1)C(C)(C)C (centres unmarked) [RG-115824],–,–,–,0.806,–,–,–,–,895,737,46,–,–,–
"CCCC(N(NC(=O)c1cccc(OC)c1CC)C(=O)c1cc(OC)c(C)c(OC)c1)C(C)(C)C (centres unmarked) [RG-115829, 3,5-Dimethoxy-4-methyl-benzoic acid N-(1-tert-butyl-butyl)-N′-(2-ethyl-3-methoxy-benzoyl)-hydrazide]",58,1440,319,0.937,–,–,–,–,–,–,–,–,–,–
CCc1c(C(=O)NN(C(=O)c2ccc(F)c(C(F)(F)F)c2)C(C)(C)C)ccc2c1OCCO2 [RG-115280],–,–,–,–,–,–,–,–,–,376,–,–,–,–
"CCC(N(NC(=O)c1cccc(OC)c1C)C(=O)c1cc(C)cc(C)c1)C(C)(C)C (centres unmarked) [RG-115819, 3,5-dimethyl-benzoic acid N-(1-ethyl-2,2-dimethyl-propyl)-N′-(3-methoxy-2-methyl-benzoyl)-hydrazide]",42,1430,722,0.915,–,–,–,–,–,–,–,–,–,–
CCCC(N(NC(=O)c1cccc(OC)c1C)C(=O)c1cc(C)cc(C)c1)C(C)(C)C (centres unmarked) [RG-115823],–,–,–,0.933,–,–,–,–,1440,1050,20,–,–,–
